Broadly, the IC50 is the midpoint of a concentration-inhibition curve. One may read the clearance as the volume of plasma or blood freed of the substance per unit of time. Read a high clearance as efficient removal. As a reminder, the AUC is the area under the concentration-time curve, a measure of exposure. Low values mean low exposure, high ones high exposure. In general, half-life refers to the time in which the quantity being followed falls by half. Low values mean fast loss, high ones slow loss. One may read the Cmax as the highest concentration seen after dosing. What is called Tmax is the time at which the peak concentration occurs. Usually bioavailability stands for dose-corrected exposure relative to a reference, in per cent. Higher therefore signals much systemic uptake.

Structures are written as SMILES.

The text below walks through data of ChEMBL document CHEMBL4725309, “Potent, non-covalent reversible BTK inhibitors with 8-amino-imidazo[1,5-a]pyrazine core featuring 3-position bicyclic ring substitutes” (Bioorg Med Chem Lett, 2020).

Data set [1] deals with T1, Tyrosine-protein kinase BTK (Homo sapiens, UniProt Q06187). Description: Inhibition of BTK in human PBMC assessed as reduction in cell surface CD69 expression preincubated for 1 hr followed by stimulation with goat anti-human IgM F(ab')2 for 18 hrs by immunostaining analysis. Format: tissue-based.
The target of data set [2] is T1, Tyrosine-protein kinase BTK. Description: Inhibition of recombinant full length BTK (unknown origin) expressed in baculovirus infected Sf9 cells using Biotin-EQEDEPEGDYFEWLE-NH2 peptide as substrate incubated for 60 mins followed by further incubation with substrate and ATP for 120 mins by TR-FRET assay. Background: In TR-FRET formats the signal depends on donor and acceptor labels being close together.

Data set [3] has the same target. In words: Inhibition of BTK in human whole blood assessed as reduction in cell surface CD69 expression preincubated for 1 hr followed by stimulation with anti-CD79b for 3 hrs by immunostaining analysis. Format: tissue-based.
Data set [4] is described as follows: Clearance in Wistar Han rat at 2 mg/kg, iv. The format is ADME, organism-based. To be noted: in vivo.
The nature of data set [5]: Volume of distribution at steady state in Wistar Han rat at 2 mg/kg, iv. The format is ADME, organism-based. To be noted: in vivo, read-out: Vdss.
The nature of data set [6]: AUC in Wistar Han rat at 2 mg/kg, iv. To be noted: in vivo. Format: ADME, organism-based. More on the design: dose 2 mg/kg.
Data set [7] can be described thus: Half life in Wistar Han rat at 2 mg/kg, iv. Format: ADME, organism-based. Conditions: in vivo.
Data set [8] can be described thus: Cmax in Wistar Han rat at 5 mg/kg, po. Conditions: in vivo. Format: ADME, organism-based. More on the design: route oral, dose 5 mg/kg.
Data set [9] can be described thus: Tmax in Wistar Han rat at 5 mg/kg, po. The format is ADME, organism-based. Conditions: in vivo.
Data set [10] can be described thus: Oral bioavailability in Wistar Han rat at 5 mg/kg. Format: ADME, organism-based. To be noted: Wistar Han, in vivo.
A short description of data set [11]: AUC in Beagle dog at 1 mg/kg, iv. The format is ADME, organism-based, Canis lupus familiaris. More on the design: dose 1 mg/kg. Conditions: in vivo.

T1 sequence (Q06187 whole entry): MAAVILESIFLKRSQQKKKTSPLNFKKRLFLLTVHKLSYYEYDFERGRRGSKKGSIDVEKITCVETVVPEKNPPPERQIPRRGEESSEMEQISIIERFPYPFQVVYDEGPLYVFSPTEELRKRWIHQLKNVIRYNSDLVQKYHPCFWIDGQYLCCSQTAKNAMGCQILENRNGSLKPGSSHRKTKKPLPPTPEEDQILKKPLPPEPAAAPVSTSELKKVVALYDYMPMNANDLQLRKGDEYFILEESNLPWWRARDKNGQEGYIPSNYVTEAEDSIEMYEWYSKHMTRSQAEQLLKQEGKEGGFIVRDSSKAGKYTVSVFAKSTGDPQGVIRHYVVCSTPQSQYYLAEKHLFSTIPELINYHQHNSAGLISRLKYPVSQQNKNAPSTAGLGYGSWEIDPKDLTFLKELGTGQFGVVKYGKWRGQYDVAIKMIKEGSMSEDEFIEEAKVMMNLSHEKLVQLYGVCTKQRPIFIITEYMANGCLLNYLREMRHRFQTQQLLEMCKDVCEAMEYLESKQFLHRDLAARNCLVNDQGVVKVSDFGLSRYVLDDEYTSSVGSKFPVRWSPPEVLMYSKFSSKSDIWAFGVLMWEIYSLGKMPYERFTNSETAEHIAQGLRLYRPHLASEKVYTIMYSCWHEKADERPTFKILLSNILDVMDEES

On to `N#Cc1cc(C(=O)Nc2cc(C(F)(F)F)ccn2)ccc1-c1nc([C@@H]2CC[C@H]3CCC(=O)N3C2)n2ccnc(N)c12`, for which, in [1], the IC50 amounted to 0.267 µM.

As to `CN1CC(=O)N2C[C@H](c3nc(-c4ccc(C(=O)Nc5cc(C(F)(F)F)ccn5)cc4F)c4c(N)nccn34)CC[C@H]2C1`, the IC50 worked out at 0.00026 µM in [2], 0.016 µM in data set [1] and 0.104 µM in [3].

Consider `Nc1nccn2c([C@@H]3CC[C@H]4CCC(=O)N4C3)nc(-c3ccc(C(=O)Nc4cc(C(F)(F)F)ccn4)cc3Oc3ccccc3)c12`, for which the IC50 in data set [2] turned out to be 0.011 µM; in [1] it was 0.31 µM.

Turning to `CC(C)Oc1cc(C(=O)Nc2cc(C(F)(F)F)ccn2)ccc1-c1nc([C@@H]2CC[C@H]3CCC(=O)N3C2)n2ccnc(N)c12`, the IC50 in [1] came to 0.041 µM.

On to `Nc1nccn2c([C@H]3CN4C(=O)OC[C@@H]4CO3)nc(-c3ccc(C(=O)Nc4cc(C(F)(F)F)ccn4)cc3)c12`, for which the IC50 was 0.025 µM in data set [2] and 0.582 µM in [1].

With `Nc1nccn2c([C@@H]3CC[C@H]4CCC(=O)N4C3)nc(-c3ccc(C(=O)Nc4cc(C(F)(F)F)ccn4)cc3OC3CC3)c12`, in data set [4], the clearance turned out to be 2.52 L/h/kg. For the same compound, the Vd in data set [5] turned out to be 4.2 L/kg. The area under the curve (AUC) in data set [6] amounted to 1.4 µM·h. In addition, in [7], the half-life was 2.3 h. Besides, the Cmax in data set [8] was 0.14 µM. The Tmax in [9] came to 3.5 h. Moreover, the bioavailability in data set [10] amounted to 14%.

For the compound `Nc1nccn2c([C@H]3CN4C(=O)CC[C@@H]4CO3)nc(-c3ccc(C(=O)Nc4cc(C(F)(F)F)ccn4)cc3)c12`, the IC50 was 0.0072 µM in data set [1] and 0.263 µM in [3].

Regarding `Nc1nccn2c([C@@H]3CC[C@H]4COCC(=O)N4C3)nc(-c3ccc(C(=O)Nc4cc(C(F)(F)F)ccn4)cc3F)c12`, the IC50 in [2] is 0.0001 µM; in data set [1], 0.0058 µM; in data set [3] it was 0.078 µM.

For the compound `Nc1nccn2c([C@@H]3CC[C@H]4CCC(=O)N4C3)nc(-c3ccc(C(=O)Nc4cc(C(F)(F)F)ccn4)cc3OC(F)(F)F)c12`, the IC50 in data set [2] came out at 0.01 µM; in data set [1], 0.074 µM.

As for `CN1C[C@@H]2CC[C@@H](c3nc(-c4ccc(C(=O)Nc5cc(C(F)(F)F)ccn5)cc4)c4c(N)nccn34)CN2C1=O`, the IC50 in data set [1] amounted to 0.403 µM.

Take `NC(=O)c1cc(C(=O)Nc2cc(C(F)(F)F)ccn2)ccc1-c1nc([C@@H]2CC[C@H]3CCC(=O)N3C2)n2ccnc(N)c12`: the IC50 in data set [1] was more than 3 µM.

As to `C[C@H]1CC[C@@H](c2nc(-c3ccc(C(=O)Nc4cc(C(F)(F)F)ccn4)cc3F)c3c(N)nccn23)CN1C(=O)C1CC1`, the AUC in data set [6] turned out to be 3.1 µM·h; in data set [11], 20 µM·h.

Turning to `Nc1nccn2c([C@@H]3CC[C@H]4CCCN4C3)nc(-c3ccc(C(=O)Nc4cc(C(F)(F)F)ccn4)cc3)c12`, the figures for the IC50 in data set [1] and in data set [3] were 0.039 µM and 0.204 µM, respectively.

In the case of `Nc1nccn2c([C@@H]3CC[C@H]4CCC(=O)N4C3)nc(-c3ccc(C(=O)Nc4cc(C(F)(F)F)ccn4)cc3C(F)(F)F)c12`, the IC50 in data set [2] is more than 1 µM; in data set [1], more than 3 µM.

In the case of `Nc1nccn2c([C@@H]3CC[C@H]4CCCC(=O)N4C3)nc(-c3ccc(C(=O)Nc4cc(C(F)(F)F)ccn4)cc3F)c12`, the IC50 in data set [1] was found to be 0.039 µM.

For `Nc1nccn2c([C@@H]3CC[C@H]4CCC(=O)N4C3)nc(-c3ccc(C(=O)Nc4cc(C(F)(F)F)ccn4)cc3C(=O)O)c12`, the IC50 in data set [1] was 1.41 µM.

In the case of `Nc1nccn2c([C@@H]3CC[C@H]4CCC(=O)N4C3)nc(-c3ccc(C(=O)Nc4cc(C(F)(F)F)ccn4)cc3O)c12`, the 50% inhibitory concentration (IC50) in data set [1] came out at 0.011 µM.

Consider `Nc1nccn2c([C@@H]3CC[C@H]4CCC(=O)N4C3)nc(-c3ccc(C(=O)Nc4cc(C(F)(F)F)ccn4)cc3OC(F)F)c12`, for which the IC50 in data set [1] amounted to 0.02 µM; in data set [3] it was 0.415 µM.

Regarding `C[C@@H]1OC(=O)N2C[C@H](c3nc(-c4ccc(C(=O)Nc5cc(C(F)(F)F)ccn5)cc4)c4c(N)nccn34)CC[C@@H]12`, the IC50 came to 0.00013 µM in data set [2], 0.0049 µM in data set [1] and 0.086 µM in [3].

For the compound `C[C@H]1OC(=O)N2C[C@H](c3nc(-c4ccc(C(=O)Nc5cc(C(F)(F)F)ccn5)cc4)c4c(N)nccn34)CC[C@@H]12`, the IC50 in data set [1] stood at 0.0032 µM; in data set [3], 0.063 µM.

Regarding `Nc1nccn2c([C@@H]3CC[C@H]4CCC(=O)N4C3)nc(-c3ccc(C(=O)Nc4cc(C(F)(F)F)ccn4)cc3F)c12`, the IC50 amounted to 0.004 µM in data set [1] and 0.101 µM in data set [3].

As for `CCOc1cc(C(=O)Nc2cc(C(F)(F)F)ccn2)ccc1-c1nc([C@@H]2CC[C@H]3CCC(=O)N3C2)n2ccnc(N)c12`, the values for the IC50 in data set [1] and in [3] were 0.01 µM and 0.092 µM, respectively.
